This note sets out measurements from US10278957B2, “Opioid agonist peptides and uses thereof” (Protagonist Therapeutics, Inc., priority 2017, dated 2019).

The target in experiment [1] is T1, δ-opioid receptor (DOR) (Homo sapiens, UniProt P41143).
T1 construct: host or cells: cAMP Hunter CHO-K1 OPRD1 Gαi cell line
As to the kind of experiment: DOR agonist cAMP assay (HitHunter cAMP, forskolin-stimulated). Type of experiment: cell-based. Here is the method:
(§1) The HitHunter® cAMP chemiluminescent assay kit (DiscoveRx, Cat# 90-0075 SM25) was used to detect cAMP production in cAMP Hunter™ Gαi cell lines over expressing either Human-ORPM1 (Discoverx, Catalog# 95-0107C2) or Human-ORPD1 (DiscoveRx, Catalog# 95-0108C2). Opioid agonist binding to the Gαi receptors inhibits the intracellular cAMP accumulation induced by forskolin, which activates adenylate cyclase and increases intracellular levels of cAMP.
(§2) Cells were cultured in media consisting of Ham's F-12 Nutrient Mix (Life Technologies, Catalog#31765035), 10% FBS (Life Technologies, Catalog# 16140-071), 4 mM GlutaMAX (Life Technologies, Catalog#35050-061), […] (Life Technologies), 100 ug/ml of Penn-Strep (Life Technologies) and 0.5 mg/ml Geneticin (Life Technologies, Catalog# 10131-027). The cultures were maintained at 37° C. under 5% CO2.
(§3) In preparation for cAMP assay, the cells were seeded at a density of 300,000 cells/ml in 100 ul of media/well in 96-well microplate. Wells that were designated for cAMP standards were left empty.
(§4) Opioid agonist serial dilutions were prepared in separate dilution plate (11-point series of 3× (3-fold) dilution) in Cell Assay buffer, including 3× forskolin for Gαi target. For Hunter CHO-K1 OPRM1 or CHO-K1 OPRD1 Gαi Cell Lines, the final forskolin concentration was 20 uM.
(§5) 15 ul of each 3× opioid agonist serial dilution was added in the presence of forskolin in duplicate to the designated wells. The final concentration of each dilution was at 3× of the final screening concentration. The assay plate was incubated for 30 min, at 37° C. under 5% CO2.
(§6) Cellular cAMP concentrations were measured using the HitHunter cAMP Assay kit following the manufacturer's protocol. HitHunter cAMP assay is a gain-of-signal competitive immunoassay based on Enzyme Fragment Complementation (EFC) technology. The kit uses β-galactosidase (β-gal) enzyme split into Enzyme Donor (ED) and Enzyme Acceptor (EA). The cellular cAMP and ED-labelled cAMP compete for anti-cAMP antibody. […] When cellular cAMP level is high, it competes for the anti-cAMP antibody, thereby releasing ED-cAMP to complement with EA to produce a luminescent signal. The amount of signal is directly proportional to the amount of cAMP in cells and can be quantified using cAMP standards. The assay plates were read using a PerkinElmer Envision instrument to detect the chemiluminescence signal in each well (luminescence reader at 0.1 to 1 second/well). Data analysis was performed using Graphpad Prism 7.EC50 was calculated by nonlinear regression, using the four-parameter hill equation.
In general terms: cAMP levels reflect the balance of adenylyl cyclase and phosphodiesterase activity.

The target of experiment [2] is T2, μ-opioid receptor (MOR) (Homo sapiens, UniProt P35372).
T2 construct: host or cells: cAMP Hunter CHO-K1 OPRM1 Gαi cell line
T2 sequence (P35372 whole entry): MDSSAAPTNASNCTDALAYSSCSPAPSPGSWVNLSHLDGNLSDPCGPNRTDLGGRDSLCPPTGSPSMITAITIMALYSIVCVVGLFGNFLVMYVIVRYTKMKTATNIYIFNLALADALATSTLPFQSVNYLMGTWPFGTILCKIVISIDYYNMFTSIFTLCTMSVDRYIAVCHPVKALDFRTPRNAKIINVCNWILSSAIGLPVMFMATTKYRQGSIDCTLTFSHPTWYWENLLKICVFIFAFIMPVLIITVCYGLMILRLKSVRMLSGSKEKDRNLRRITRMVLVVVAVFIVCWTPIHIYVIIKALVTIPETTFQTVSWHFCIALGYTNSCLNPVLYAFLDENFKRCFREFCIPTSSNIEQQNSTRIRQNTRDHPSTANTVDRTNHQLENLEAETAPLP
In words: MOR agonist cAMP assay (HitHunter cAMP, forskolin-stimulated). Type of experiment: cell-based. As for the experimental part: as §1, §2, §3, §4, §5, §6

Square brackets hold non-standard residues; d marks the D form. Peptide text beside a SMILES is read from it. Phe(2,6-Me2,4-CONH2) = Cc1cc(C(N)=O)cc(C)c1C[C@H](N)C(=O)O; Phe(4-CN) = N#Cc1ccc(C[C@H](N)C(=O)O)cc1; Dmt = Cc1cc(O)cc(C)c1C[C@H](N)C(=O)O; hPhe = N[C@@H](CCc1ccccc1)C(=O)O; dTic = O=C(O)[C@H]1Cc2ccccc2CN1; β3hF = N[C@H](CC(=O)O)Cc1ccccc1; Nle = CCCC[C@H](N)C(=O)O; Sar = CNCC(=O)O

In general, EC50 refers to the concentration giving half of the maximal effect. A high value points to lower potency in that assay.

T1 sequence (P41143 whole entry): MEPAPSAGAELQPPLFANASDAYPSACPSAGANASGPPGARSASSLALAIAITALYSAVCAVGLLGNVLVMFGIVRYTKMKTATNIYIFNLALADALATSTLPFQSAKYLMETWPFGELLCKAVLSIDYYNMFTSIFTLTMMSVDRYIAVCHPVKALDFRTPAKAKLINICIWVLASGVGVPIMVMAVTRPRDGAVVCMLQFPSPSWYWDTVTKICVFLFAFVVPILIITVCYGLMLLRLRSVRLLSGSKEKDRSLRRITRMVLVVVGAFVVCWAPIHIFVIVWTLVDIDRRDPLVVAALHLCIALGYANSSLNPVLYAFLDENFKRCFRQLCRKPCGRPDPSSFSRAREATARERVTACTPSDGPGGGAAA

Regarding `Cc1cc(O)cc(C)c1C[C@H](N)C(=O)N[C@H](CCCNC(=N)N)C(=O)N[C@@H](Cc1ccc(C#N)cc1)C(=O)N(C)CC(N)=O` [compound 20] (H-[Dmt][dR][Phe(4-CN)][Sar]-NH2), the EC50 in experiment [1] was below 1 nM; in experiment [2], 1 to 10 nM.

In the case of `Cc1cc(O)cc(C)c1C[C@H](N)C(=O)N1Cc2ccccc2C[C@@H]1C(=O)N[C@@H](Cc1ccccc1)C(=O)N(C)CC(N)=O` [compound 44] (H-[Dmt][dTic]F[Sar]-NH2), the EC50 in experiment [1] is 1 to 10 nM; in experiment [2], below 1 nM.

Consider `Cc1cc(O)cc(C)c1C[C@H](N)C(=O)N1Cc2ccccc2C[C@@H]1C(=O)NCC(=O)N[C@@H](Cc1ccccc1)C(=O)N(C)CC(N)=O` [compound 45] (H-[Dmt][dTic]GF[Sar]-NH2), for which the concentration for a half-maximal effect (EC50) in experiment [1] and in experiment [2] was below 1 nM throughout.

On to `Cc1cc(O)cc(C)c1C[C@H](N)C(=O)N[C@H](C)C(=O)N[C@@H](CCc1ccccc1)C(=O)N(C)CC(N)=O` [compound 46] (H-[Dmt][dA][hPhe][Sar]-NH2), for which the EC50 in experiment [1] and in experiment [2] was below 1 nM in each case.

As to `CCCC[C@H](NC(=O)[C@H](CCc1ccccc1)NC(=O)[C@@H](C)NC(=O)[C@@H](N)Cc1c(C)cc(O)cc1C)C(N)=O` [compound 48] (H-[Dmt][dA][hPhe][Nle]-NH2), the half-maximal effective concentration (EC50) in experiment [1] and in experiment [2] was below 1 nM throughout.

In the case of `CC(=O)Nc1ccc(C[C@H](N)C(=O)N[C@H](C)C(=O)NCC(=O)N[C@H](CC(=O)N(C)CC(N)=O)Cc2ccccc2)cc1` [compound 59], the concentration giving a half-maximal response (EC50) is 50 to 200 nM in experiment [1] and 10 to 50 nM in experiment [2].

With `C[C@@H](NC(=O)[C@@H](N)Cc1ccc(C(N)=O)cc1)C(=O)NCC(=O)N[C@H](CC(=O)N(C)CC(N)=O)Cc1ccccc1` [compound 60], the 50% effective concentration (EC50) in experiment [1] and in experiment [2] was 1 to 10 nM throughout.

For the compound `C[C@@H](NC(=O)[C@@H](N)Cc1c[nH]c2ccc(O)cc12)C(=O)NCC(=O)N[C@H](CC(=O)N(C)CC(N)=O)Cc1ccccc1` [compound 63], the EC50 in experiment [1] and in experiment [2] was 50 to 200 nM in each case.

`Cc1cc(O)cc(C)c1C[C@H](N)C(=O)N[C@H](C)C(=O)N[C@@H](CC(C)C)C(=O)N[C@H](CC(=O)N(C)CC(N)=O)Cc1ccccc1` [compound 67] (H-[Dmt][dA]L[β3hF][Sar]-NH2): the EC50 is 10 to 50 nM in experiment [1] and below 1 nM in experiment [2].

With `CC[C@H](C)[C@H](NC(=O)[C@@H](C)NC(=O)[C@@H](N)Cc1c(C)cc(O)cc1C)C(=O)N[C@H](CC(=O)N(C)CC(N)=O)Cc1ccccc1` [compound 68] (H-[Dmt][dA]I[β3hF][Sar]-NH2), the EC50 in experiment [1] is 10 to 50 nM; in experiment [2] it was below 1 nM.

For `Cc1cc(C(N)=O)cc(C)c1C[C@H](N)C(=O)NCC(=O)NCC(=O)N[C@H](CC(=O)N(C)CC(N)=O)Cc1ccccc1` [compound 74] (H-[Phe(2,6-Me2,4-CONH2)]GG[β3hF][Sar]-NH2), the EC50 in experiment [1] and in experiment [2] was below 1 nM throughout.

`Cc1cc(C(N)=O)cc(C)c1C[C@H](N)C(=O)NC(C)(C)C(=O)NCC(=O)N[C@H](CC(=O)N(C)CC(N)=O)Cc1ccccc1` [compound 75]: the concentration giving a half-maximal response (EC50) is 10 to 50 nM in experiment [1] and below 1 nM in experiment [2].

Regarding `Cc1cc(C(N)=O)cc(C)c1C[C@H](N)C(=O)N[C@@H](C)C(=O)NCC(=O)N[C@H](CC(=O)N(C)CC(=O)O)Cc1ccccc1` [compound 80], the figures for the EC50 in experiment [1] and in experiment [2] were 50 to 200 nM and 1 to 10 nM, respectively.

As to `C[C@@H](NC(=O)[C@@H](N)Cc1ccc(C(=O)O)cc1)C(=O)NCC(=O)N[C@H](CC(=O)N(C)CC(N)=O)Cc1ccccc1` [compound 89], the EC50 in experiment [1] and in experiment [2] was 50 to 200 nM throughout.

`Cc1cc(O)cc(C)c1C[C@H](N)C(=O)NC(C)(C)C(=O)NCC(=O)N[C@H](CC(=O)N(C)CC(N)=O)Cc1ccccc1` [compound 90]: the concentration for a half-maximal effect (EC50) is 1 to 10 nM in experiment [1] and below 1 nM in experiment [2].

Consider `Cc1cc(C(N)=O)cc(C)c1C[C@H](N)C(=O)N[C@H](C)C(=O)NCC(=O)N[C@H](CC(=O)NCC(N)=O)Cc1ccccc1` [compound 94], for which the values for the EC50 in experiment [1] and in experiment [2] were 1 to 10 nM and below 1 nM, respectively.

For the compound `CC[C@H](C)[C@@H](C(=O)O)N(C)C(=O)C[C@H](Cc1ccccc1)NC(=O)CNC(=O)[C@@H](C)NC(=O)[C@@H](N)Cc1c(C)cc(C(N)=O)cc1C` [compound 95], the results for the half-maximal effective concentration (EC50) in experiment [1] and in experiment [2] were 1 to 10 nM and below 1 nM, respectively.

For `CCC[C@@H](C(=O)O)N(C)C(=O)C[C@H](Cc1ccccc1)NC(=O)CNC(=O)[C@@H](C)NC(=O)[C@@H](N)Cc1c(C)cc(C(N)=O)cc1C` [compound 97], the EC50 in experiment [1] and in experiment [2] was below 1 nM each time.

On to `Cc1cc(C(N)=O)cc(C)c1C[C@H](N)C(=O)N[C@H](C)C(=O)NCC(=O)N[C@H](CC(=O)N(C)[C@@H](CC1CCCCC1)C(=O)O)Cc1ccccc1` [compound 98], for which the EC50 in experiment [1] and in experiment [2] was 1 to 10 nM each time.

For `Cc1cc(C(N)=O)cc(C)c1C[C@H](N)C(=O)N[C@H](C)C(=O)NCC(=O)N[C@H](CC(=O)N(C)[C@@H](Cc1ccccc1)C(=O)O)Cc1ccccc1` [compound 100], the EC50 in experiment [1] and in experiment [2] was 1 to 10 nM each time.

On to `Cc1cc(C(N)=O)cc(C)c1C[C@H](N)C(=O)N1Cc2ccccc2C[C@H]1C(=O)NCC(=O)N[C@H](CC(=O)N(C)CC(N)=O)Cc1ccccc1` [compound 103], for which the concentration giving a half-maximal response (EC50) in experiment [1] and in experiment [2] was 50 to 200 nM in each case.

Consider `Cc1cc(O)cc(C)c1C[C@H](N)C(=O)N1Cc2ccccc2C[C@H]1C(=O)NCC(=O)N[C@H](CC(=O)N(C)CC(N)=O)Cc1ccccc1` [compound 104], for which the EC50 in experiment [1] and in experiment [2] was 50 to 200 nM each time.

In the case of `Cc1cc(C(N)=O)cc(C)c1C[C@H](N)C(=O)N[C@H](C)C(=O)NCC(=O)N[C@H](CC(=O)N(C)[C@@H](Cc1c[nH]c2ccccc12)C(=O)O)Cc1ccccc1` [compound 106], the 50% effective concentration (EC50) in experiment [1] and in experiment [2] was 1 to 10 nM in each case.

For `Cc1cc(C(N)=O)cc(C)c1C[C@H](N)C(=O)N[C@H](C)C(=O)NCC(=O)N1Cc2ccccc2C[C@H]1C(=O)N(C)CC(N)=O` [compound 108], the 50% effective concentration (EC50) in experiment [1] fell in the range of 10 to 50 nM; in experiment [2] it was 1 to 10 nM.

As to `CC[C@H](C)[C@@H](C(=O)O)N(C)C(=O)C[C@H](Cc1ccccc1)NC(=O)CNC(=O)[C@@H](C)NC(=O)[C@@H](N)Cc1c(C)cc(O)cc1C` [compound 113], the concentration for a half-maximal effect (EC50) in experiment [1] and in experiment [2] was below 1 nM each time.

`Cc1cc(O)cc(C)c1C[C@H](N)C(=O)N[C@H](C)C(=O)NCC(=O)N[C@H](CC(=O)N[C@@H](Cc1ccc2ccccc2c1)C(N)=O)Cc1ccccc1` [compound 114]: the EC50 in experiment [1] and in experiment [2] was 1 to 10 nM throughout.

As to `Cc1cc(O)cc(C)c1C[C@H](N)C(=O)N[C@H](C)C(=O)NCC(=O)N[C@H](CC(=O)N(CC(N)=O)CC(F)(F)F)Cc1ccccc1` [compound 122], the 50% effective concentration (EC50) in experiment [1] and in experiment [2] was below 1 nM each time.

With `CCCCCCCCCCCCCCCCN(CC(N)=O)C(=O)C[C@H](Cc1ccccc1)NC(=O)CNC(=O)[C@@H](C)NC(=O)[C@@H](N)Cc1c(C)cc(O)cc1C` [compound 125], the EC50 in experiment [1] and in experiment [2] was 1 to 10 nM each time.

For the compound `CCCC[C@@H](C(=O)O)N(C)C(=O)C[C@H](Cc1ccc(I)cc1)NC(=O)CNC(=O)[C@@H](C)NC(=O)[C@@H](N)Cc1c(C)cc(C(N)=O)cc1C` [compound 136], the concentration giving a half-maximal response (EC50) in experiment [1] and in experiment [2] was below 1 nM in each case.

As to `CCCC[C@@H](C(=O)O)N(C)C(=O)C[C@H](Cc1c[nH]c2ccccc12)NC(=O)CNC(=O)[C@@H](C)NC(=O)[C@@H](N)Cc1c(C)cc(C(N)=O)cc1C` [compound 139], the results for the EC50 in experiment [1] and in experiment [2] were 1 to 10 nM and below 1 nM, respectively.

`CCCC[C@@H](C(=O)O)N(C)C(=O)C[C@H](Cc1cccc(C)c1)NC(=O)CNC(=O)[C@@H](C)NC(=O)[C@@H](N)Cc1c(C)cc(O)cc1C` [compound 141]: the concentration for a half-maximal effect (EC50) in experiment [1] and in experiment [2] was below 1 nM in each case.

With `CCCC[C@@H](C(=O)O)N(C)C(=O)C[C@H](Cc1ccc(C)cc1)NC(=O)CNC(=O)[C@@H](C)NC(=O)[C@@H](N)Cc1c(C)cc(O)cc1C` [compound 142], the EC50 in experiment [1] was below 1 nM; in experiment [2] it was 1 to 10 nM.
